Tests used:
Assay type in all cases: cell-based, human
miR-29c = test: Quantitative RT-PCR (TaqMan miRNA assay), cellular and secreted miRNA in LSMC; conditions: for miR-29c level: 48 hours, LSMC; for expression of miR-29c: primary leiomyoma cells
Experimental: (§1) Total RNA was extracted from LSMC using RNAzol (GeneCopoeia, Rockville, Md.) and their quantity and quality was determined (ND-1000 Spectrophotometer, NanoDrop Technologies, Wilmington, Del.) as previously described (Chuang & Khorram, “miR-200c Regulates IL8 Expression by Targeting IKBKB: A Potential Mediator of Inflammation in Leiomyoma Pathogenesis,” PloS one (2014) 9:e95370). For medium miRNA extraction, 5 pg of synthetic miR-1 from Caenorhabditis elegans (cel-miR-1) was added as a spike-in control for purification efficiency. Subsequently, 2 μg or 10 ng (for miRNA) was reverse transcribed using random primers for CCND1, CDK2, COL1A1, COL3A1, TGF-β3, DNMT1 and EZH2 or specific primers for miR-29c and miR-200c according to the manufacturer's guidelines (Applied Biosystems, Carlsbad, Calif.). Quantitative RT-PCR was carried out using SYBR gene expression master mix or TaqMan miRNA expression assays (Applied Biosystems). Reactions were incubated for 10 min at 95° C. followed by 40 cycles for 15 seconds at 95° C. and 1 min at 60° C. The level of mRNAs and expression of cellular and secreted miRNA was determined using the Invitrogen StepOne System with 18S, RNU6B and cel-miR-1 used for normalization respectively. All reactions were run in triplicate and relative expression was analyzed with the comparative cycle threshold method (2^−ΔΔCT) according to the manufacturer (Applied Biosystems). Values were expressed as fold change compared to the control group.

miR-200c = test: as above; conditions: primary leiomyoma cells
Experimental: as §1

3′UTR of CDK2 = test: 3′UTR luciferase reporter assay in LSMC; conditions: primary leiomyoma cells
3′UTR of COL3A1 = test: 3′UTR luciferase reporter assay in LSMC; conditions: primary leiomyoma cells
Experimental: LSMC were seeded at 3.5×10^4 cells/well in 6-well plates and at sub-confluence were treated with Tranilast (200 μM) or DMSO as control for 48 hrs. Tranilast and DMSO-treated cells were then transfected with luciferase reporter plasmids (1 μg/well) containing 3′ UTR sequences for COL3A1 or CDK2 (GeneCopoeia, Inc., Rockville, Md.) using PureFection transfection reagent (System Biosciences, Inc., Palo Alto, Calif.). After 48 hrs of transfection Firefly and Renilla luciferase activities were measured using the Dual-Luciferase Reporter Assay System (Promega). Firefly luciferase activity was normalized to Renilla luciferase activity. The level of induction was reported as mean±SEM of three experiments and compared with a ratio in cells treated with DMSO independently set as 1.
FIG. 10A: The relative luciferase activity in LSMC treated with Tranilast (200 μM) or DMSO as control for 48 hrs prior to transfection with Renilla and Firefly luciferase reporter plasmids carrying a 3′UTR fragment of COL3A1, CDK2 or IL8 and incubated with Tranilast (200 μM) or DMSO containing medium after transfection for another 48 hrs. The relative luciferase activity is presented as the ratio of Firefly:Renilla as compared to DMSO which was independently set as 1. The results are presented as mean±SEM of at least three sets of independent experiments using LSMC isolated from 3 patients. FIG. 10B: Protein expression of COL3A1 and CDK2 was determined after transfection of anti-miR scrambled oligonucleotides (aNC) or anti-miR-29c oligonucleotides (a29c) in LSMC for 72 hrs with DMSO or Tranilast (200 μM) treatment for the last 48 hrs. GAPDH was used as loading control. The result is one representative of at least three sets of independent experiments using LSMC isolated from 3 patients. FIG. 10C: The bar graph presented the relative band densities as mean±SEM of at least three independent experiments. Inhibition of protein expression by Tranilast treatment was calculated relative to changes in corresponding DMSO controls in cells transfected with aNC or anti-miR-29c.

For `CC(=O)Oc1ccccc1C(=O)O` [Aspirin], the miR-29c level (miR-29c; Aspirin 10 mM) was “not affected”.
`CCCCc1oc2ccccc2c1C(=O)c1cc(I)c(OCCN(CC)CC)c(I)c1` [amiodarone] was tested, and the miR-29c level (miR-29c; amiodarone 1 μM) was “not affected”.
In the case of bleomycin, the miR-29c level (miR-29c; bleomycin 10 μg/ml) was “not affected”.
`Cc1ccc(=O)n(-c2ccccc2)c1` [Pirfenidone] was tested, and the “expression of miR-29c” value (miR-29c; Pirfenidone 0.25 mg/ml) was “induce”, the “expression of miR-200c” value (miR-200c; Pirfenidone 0.25 mg/ml) was “induce” and the “activity of luciferase reporter containing 3′UTR of CDK2” value (3′UTR of CDK2; Pirfenidone 0.25 mg/ml) was “inhibit”. The “activity of luciferase reporter containing 3′UTR of COL3A1” value (3′UTR of COL3A1; Pirfenidone 0.25 mg/ml) was “inhibit”.
With `O=C(CC1NCCCC1O)Cn1cnc2cc(Br)c(Cl)cc2c1=O` (centres unmarked) [Halofuginone] the “expression of miR-29c” value (miR-29c; Halofuginone 200 nM) was “induce”, the “expression of miR-200c” value (miR-200c; Halofuginone 200 nM) was “induce” and the “activity of luciferase reporter containing 3′UTR of CDK2” value (3′UTR of CDK2; Halofuginone 200 nM) was “inhibit”. For the same compound, the “activity of luciferase reporter containing 3′UTR of COL3A1” value (3′UTR of COL3A1; Halofuginone 200 nM) was “inhibit”.
